Assay results: patent US11447503B2, “Pyridine carbamates and their use as GLUN2B receptor modulators” (JANSSEN PHARMACEUTICA NV, priority 2019, dated 2022)
Where a name gives a salt, the structure may show the parent alone.

Target: human GluN1/GluN2B NMDA receptors (Homo sapiens, UniProt Q05586+Q13224)
Assay: Cell-based calcium flux (FLIPR) assay on cloned human GluN1/GluN2B ion channels expressed in mammalian cells
Settings: standard assay; glutamate ~EC40, 10 μM glycine; stable Tet-On cell line
Protocol: 5.3. Biological Assays: Effect of Compounds of Formula (I) on Cloned Human GluN1/GluN2B Ion Channels Expressed in Mammalian Cells
NMDA receptors are ion channels that are highly permeable to Ca^2+ ions, rendering it possible to monitor NMDA receptor function using cell-based calcium flux assay. In this assay, co-agonists glutamate and glycine are added to cells heterologously expressing human GluN1/GluN2B NMDA receptors to initiate cellular Ca^2+ influx. The time course of the changes in intracellular calcium is measured using a fluorescent dye and a FLIPR (Fluorometric Imaging Plate Reader) device.
Twenty four hours before measurements, the expression of the NMDA receptors in the stable cell line is induced with Tet-On inducible system in the presence of a non-selective NMDA receptor blocker. On the day of the experiment, cell culture media is carefully washed and the cells are loaded with Calcium 5 Dye Kit (Molecular Devices) in dye loading buffer containing 137 mM NaCl, 4 mM KCl, 2 mM CaCl2, 0.5 mM MgCl2 (standard assay) or 1.5 mM MgCl2 (HTS assay), 10 mM HEPES and 5 mM D-glucose; pH 7.4. After 1 h incubation at the room temperature, the dye is washed away with the assay buffer (137 mM NaCl (standard assay) or 150 mM (HTS assay), 4 mM KCl (standard assay) or 3 mM (HTS assay), 2 mM CaCl2, 0.01 mM EDTA, 10 mM HEPES and 5 mM D-glucose; pH 7.4) In the FLIPR TETRA reader, various concentrations of the test compounds are added to the cells for 5 min while fluorescence is monitored to detect potential agonist activity. Next, co-agonists, glutamate and glycine are added for another 5 minutes. The concentration of glutamate corresponding to ˜EC40 (standard assay) or EC40 (HTS assay) is used to maximize the assay's signal window and ability to detect NMDA receptor antagonists and negative allosteric modulators. A saturating concentration (10 μM) of glycine is also present in the assay. A non-selective NMDA receptor antagonist, (+)MK-801 is used as a positive control for antagonist activity. The fluorescent signal in the presence of test compounds is quantified and normalized to the signal defined by the appropriate control wells.

Chain of human GluN1/GluN2B NMDA receptors (Q13224 27-1484, other chains not shown): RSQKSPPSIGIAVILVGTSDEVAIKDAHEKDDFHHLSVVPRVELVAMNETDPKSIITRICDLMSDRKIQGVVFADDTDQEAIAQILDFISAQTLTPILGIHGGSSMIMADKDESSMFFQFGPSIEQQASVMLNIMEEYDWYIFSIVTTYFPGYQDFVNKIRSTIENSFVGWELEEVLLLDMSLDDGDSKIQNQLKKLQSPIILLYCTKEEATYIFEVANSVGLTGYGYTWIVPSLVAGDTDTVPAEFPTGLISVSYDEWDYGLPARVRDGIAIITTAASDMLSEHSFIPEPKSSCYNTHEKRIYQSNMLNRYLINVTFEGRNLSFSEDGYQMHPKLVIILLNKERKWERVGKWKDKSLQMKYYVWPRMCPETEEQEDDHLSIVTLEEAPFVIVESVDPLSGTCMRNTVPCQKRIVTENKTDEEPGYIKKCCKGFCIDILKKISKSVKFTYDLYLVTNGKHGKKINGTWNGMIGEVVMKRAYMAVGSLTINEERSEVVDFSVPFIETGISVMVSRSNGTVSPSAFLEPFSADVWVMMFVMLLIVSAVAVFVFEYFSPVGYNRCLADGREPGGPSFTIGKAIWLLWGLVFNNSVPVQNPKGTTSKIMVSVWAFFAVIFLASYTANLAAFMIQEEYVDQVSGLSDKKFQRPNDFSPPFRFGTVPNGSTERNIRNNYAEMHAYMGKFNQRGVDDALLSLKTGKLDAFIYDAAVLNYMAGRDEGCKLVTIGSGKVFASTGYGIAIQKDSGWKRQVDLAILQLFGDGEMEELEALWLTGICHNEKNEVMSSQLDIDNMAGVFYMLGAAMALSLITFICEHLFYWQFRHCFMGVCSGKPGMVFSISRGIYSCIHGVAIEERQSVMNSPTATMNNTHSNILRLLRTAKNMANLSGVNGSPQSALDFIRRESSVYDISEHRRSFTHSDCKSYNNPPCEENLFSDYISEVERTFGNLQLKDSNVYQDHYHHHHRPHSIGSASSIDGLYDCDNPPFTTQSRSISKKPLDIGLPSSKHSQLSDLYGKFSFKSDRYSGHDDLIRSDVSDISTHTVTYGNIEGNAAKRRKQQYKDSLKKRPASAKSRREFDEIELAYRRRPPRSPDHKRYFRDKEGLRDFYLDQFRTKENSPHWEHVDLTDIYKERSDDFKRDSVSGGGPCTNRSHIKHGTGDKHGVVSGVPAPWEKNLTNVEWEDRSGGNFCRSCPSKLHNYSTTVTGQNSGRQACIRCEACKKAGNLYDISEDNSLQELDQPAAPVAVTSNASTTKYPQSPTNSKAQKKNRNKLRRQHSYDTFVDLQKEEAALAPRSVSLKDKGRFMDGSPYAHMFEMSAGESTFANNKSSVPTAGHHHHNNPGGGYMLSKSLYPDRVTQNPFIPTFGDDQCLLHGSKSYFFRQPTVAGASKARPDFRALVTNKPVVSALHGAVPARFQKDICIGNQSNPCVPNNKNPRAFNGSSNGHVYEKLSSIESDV

SMILES	IC50
CC(C)[C@@H]1COC(=O)N1Cc1cncc(-c2ccc(F)c(OC(F)F)c2)c1 [Example 11, (4R)-3-[[5-[3-(Difluoromethoxy)-4-fluoro-phenyl]-3-pyridyl]methyl]-4-isopropyl-oxazolidin-2-one]	> 3000 nM
O=C1OC2(CCC2)CN1Cc1cncc(-c2ccc(F)c(OC(F)F)c2)c1 [Example 12, 6-[[5-[3-(Difluoromethoxy)-4-fluoro-phenyl]-3-pyridyl]methyl]-8-oxa-6-azaspiro[3.4]octan-7-one]	59 nM
O=C1OC2(COC2)CN1Cc1cncc(-c2ccc(F)c(OC(F)F)c2)c1 [Example 13, 6-[[5-[3-(Difluoromethoxy)-4-fluoro-phenyl]-3-pyridyl]methyl]-2,8-dioxa-6-azaspiro[3.4]octan-7-one]	39 nM
O=C1OC2(CCOCC2)CN1Cc1cncc(-c2ccc(F)c(OC(F)F)c2)c1 [Example 20, 2-[[5-[3-(Difluoromethoxy)-4-fluoro-phenyl]-3-pyridyl]methyl]-4,8-dioxa-2-azaspiro[4.5]decan-3-one]	267 nM
O=C1OC2(CNC2)CN1Cc1cncc(-c2ccc(F)c(C(F)F)c2)c1 [Example 21, 6-[[5-[3-(Difluoromethyl)-4-fluoro-phenyl]-3-pyridyl]methyl]-8-oxa-2,6-diazaspiro[3.4]octan-7-one Trifluoroacetate Salt]	806 nM
CC(C)[C@H]1COC(=O)N1Cc1cncc(-c2ccc(F)c(C(F)F)c2)c1 [Example 23, (4S)-3-[[5-[3-(Difluoromethyl)-4-fluoro-phenyl]-3-pyridyl]methyl]-4-isopropyl-oxazolidin-2-one]	2600 nM
O=C1OCc2ccccc2N1Cc1cncc(-c2ccc(F)c(C(F)F)c2)c1 [Example 24, 1-[[5-[3-(Difluoromethyl)-4-fluoro-phenyl]-3-pyridyl]methyl]-4H-3,1-benzoxazin-2-one]	73 nM
O=C1OC2(CC2)CN1Cc1cncc(-c2ccc(F)c(C(F)F)c2)c1 [Example 29, 5-[[5-[3-(Difluoromethyl)-4-fluoro-phenyl]-3-pyridyl]methyl]-7-oxa-5-azaspiro[2.4]heptan-6-one]	12 nM
CC1(C)CCN(Cc2cncc(-c3ccc(F)c(C(F)F)c3)c2)C(=O)O1 [Example 30, 3-[[5-[3-(Difluoromethyl)-4-fluoro-phenyl]-3-pyridyl]methyl]-6,6-dimethyl-1,3-oxazinan-2-one]	603 nM
CC(C)[C@@H]1COC(=O)N1Cc1cncc(-c2ccc(F)c(C(F)F)c2)c1 [Example 31, (4R)-3-[[5-[3-(Difluoromethyl)-4-fluoro-phenyl]-3-pyridyl]methyl]-4-isopropyl-oxazolidin-2-one]	> 3000 nM
O=C1OC2(CCC2)CN1Cc1cncc(-c2ccc(F)c(C(F)F)c2)c1 [Example 32, 6-[[5-[3-(Difluoromethyl)-4-fluoro-phenyl]-3-pyridyl]methyl]-8-oxa-6-azaspiro[3.4]octan-7-one]	26 nM
C[C@@H]1CN(Cc2cncc(-c3ccc(F)c(C(F)F)c3)c2)C(=O)O1 [Example 33, (5R)-3-[[5-[3-(Difluoromethyl)-4-fluoro-phenyl]-3-pyridyl]methyl]-5-methyl-oxazolidin-2-one]	16 nM
O=C1OC2(COC2)CN1Cc1cncc(-c2ccc(F)c(C(F)F)c2)c1 [Example 34, 6-[[5-[3-(Difluoromethyl)-4-fluoro-phenyl]-3-pyridyl]methyl]-2,8-dioxa-6-azaspiro[3.4]octan-7-one]	30 nM
O=C1OC2(CCOCC2)CN1Cc1cncc(-c2ccc(F)c(C(F)F)c2)c1 [Example 42, 2-[[5-[3-(Difluoromethyl)-4-fluoro-phenyl]-3-pyridyl]methyl]-4,8-dioxa-2-azaspiro[4.5]decan-3-one]	108 nM
O=C1OC2(CNC2)CN1Cc1cncc(-c2ccc(F)c(OC(F)F)c2)c1 [Example 43, 6-[[5-[3-(Difluoromethoxy)-4-fluoro-phenyl]-3-pyridyl]methyl]-8-oxa-2,6-diazaspiro[3.4]octan-7-one Trifluoroacetate Salt]	2620 nM
Cc1cc(-c2cncc(CN3CCOC3=O)c2)ccc1F [Example 44, 3-[[5-(4-Fluoro-3-methyl-phenyl)-3-pyridyl]methyl]oxazolidin-2-one]	12 nM
Cc1c(F)ccc(-c2cncc(CN3CCOC3=O)c2)c1F [Example 45, 3-[[5-(2,4-Difluoro-3-methyl-phenyl)-3-pyridyl]methyl]oxazolidin-2-one]	9 nM
O=C1OCCN1Cc1cncc(-c2cccc(C(F)(F)F)c2)c1 [Example 46, 3-[[5-[3-(Trifluoromethyl)phenyl]-3-pyridyl]methyl]oxazolidin-2-one]	26 nM

Results, then the compound that gave them:

IC50	SMILES
11 nM	O=C1OCCN1Cc1cncc(-c2ccc(Cl)c(OC(F)F)c2)c1 [Example 47, 3-[[5-[4-Chloro-3-(difluoromethoxy)phenyl]-3-pyridyl]methyl]oxazolidin-2-one]
912 nM	O=C1OCCN1Cc1cncc(-c2ccc(OC(F)(F)F)c(F)c2)c1 [Example 48, 3-[[5-[3-Fluoro-4-(trifluoromethoxy)phenyl]-3-pyridyl]methyl]oxazolidin-2-one]
30 nM	CC(F)(F)c1cc(-c2cncc(CN3CCOC3=O)c2)ccc1F [Example 49, 3-[[5-[3-(1,1-Difluoroethyl)-4-fluoro-phenyl]-3-pyridyl]methyl]oxazolidin-2-one]
786 nM	O=C1OCCN1Cc1cncc(-c2cccc(C(F)(F)F)n2)c1 [Example 50, 3-[[5-[6-(Trifluoromethyl)-2-pyridyl]-3-pyridyl]methyl]oxazolidin-2-one]
1000 nM	O=C1OCCN1Cc1cncc(-c2ccnc(C(F)(F)F)c2)c1 [Example 51, 3-[[5-[2-(Trifluoromethyl)-4-pyridyl]-3-pyridyl]methyl]oxazoidin-2-one]
27 nM	O=C1OCCCN1Cc1cncc(-c2ccc(F)c(C(F)(F)F)c2)c1 [Example 52, 3-[[5-[4-Fluoro-3-(trifluoromethyl)phenyl]-3-pyridyl]methyl]-1,3-oxazinan-2-one]
12 nM	[2H]C([2H])(c1cncc(-c2ccc(F)c(OC(F)F)c2)c1)N1CCCOC1=O [Example 55, 3-[Dideuterio-[5-[3-(difluoromethoxy)-4-fluoro-phenyl]-3-pyridyl]methyl]-1,3-oxazinan-2-one]
9 nM	[2H]C([2H])(c1cc(-c2ccc(F)c(OC(F)F)c2)cnc1C)N1CCCOC1=O [Example 56, 3-[Dideuterio-[5-[3-(difluoromethoxy)-4-fluoro-phenyl]-2-methyl-3-pyridyl]methyl]-1,3-oxazinan-2-one]
23 nM	[2H]C([2H])(c1cc(-c2ccc(F)c(C)c2)cnc1C)N1CCCOC1=O [Example 57, 3-[Dideuterio-[5-(4-fluoro-3-methyl-phenyl)-2-methyl-3-pyridyl]methyl]-1,3-oxazinan-2-one]
25 nM	[2H]C([2H])(c1cc(-c2ccc(F)c(C(F)F)c2)cnc1C)N1CCCOC1=O [Example 58, 3-[Dideuterio-[5-[3-(difluoromethyl)-4-fluoro-phenyl]-2-methyl-3-pyridyl]methyl]-1,3-oxazinan-2-one]
13 nM	[2H]C([2H])(c1cc(-c2ccc(F)c(C(F)F)c2)cnc1C)N1CCOC1=O [Example 59, 3-[Dideuterio-[5-[3-(difluoromethyl)-4-fluoro-phenyl]-2-methyl-3-pyridyl]methyl]oxazolidin-2-one]
